From ChEMBL document CHEMBL3885881, “DrugMatrix”

Organism: Rattus norvegicus
Experiment: DrugMatrix - Regimen: Daily Repeat
Type: toxicity, organism-based, Sprague-Dawley
Parameters: regimen Daily Repeat, gender Male, age 6-8 weeks
Conditions: in vivo, po, route oral GAVAGE, vehicle 100 % WATER; for ERYTHROCYTE COUNT / HEMATOCRIT / HEMOGLOBIN / LEUKOCYTE COUNT / MEAN CORPUSCULAR HEMOGLOBIN / MEAN CORPUSCULAR HEMOGLOBIN CONCENTRATION / MEAN CORPUSCULAR VOLUME: tissue Blood; for ALANINE AMINOTRANSFERASE / ALBUMIN / ALKALINE PHOSPHATASE / ASPARTATE AMINOTRANSFERASE / BLOOD UREA NITROGEN / CARBON DIOXIDE / CHLORIDE / CHOLESTEROL / CREATINE PHOSPHOKINASE / CREATININE / GLUCOSE / LACTATE DEHYDROGENASE / LIPASE / PHOSPHORUS / POTASSIUM / SODIUM / TOTAL BILIRUBIN / TOTAL PROTEIN / URIC ACID: tissue Plasma
[1] = 0 mg/kg, 72 h, dose level Control, time 3 day
[2] = 0 mg/kg, 120 h, dose level Control, time 5 day
[3] = 70 mg/kg, 72 h, dose level Low, time 3 day
[4] = 70 mg/kg, 120 h, dose level Low, time 5 day

`COc1cc2c(N3CCN(C(=O)Nc4ccc(OC(C)C)cc4)CC3)ncnc2cc1OCCCN1CCCCC1` [TANDUTINIB] was tested, and the “ERYTHROCYTE COUNT” value [1] was 6.09 x10E6/uL, the HEMATOCRIT [1] was 42.62% and the HEMOGLOBIN [1] was 13.07 G/DL. The “LEUKOCYTE COUNT” value [1] was 13.95 x10E3/uL, the “MEAN CORPUSCULAR HEMOGLOBIN” value [1] was 21.47 pg and the “MEAN CORPUSCULAR HEMOGLOBIN CONCENTRATION” value [1] was 30.62 G/DL. The “MEAN CORPUSCULAR VOLUME” value [1] was 70.05 fL, the “ALANINE AMINOTRANSFERASE” value [1] was 47.67 u/L and the ALBUMIN [1] was 3.8 G/DL. For the same compound, the “ALKALINE PHOSPHATASE” value [1] was 369 u/L, the “ASPARTATE AMINOTRANSFERASE” value [1] was 86.17 u/L and the “BLOOD UREA NITROGEN” value [1] was 16.33 mg/dL. The “CARBON DIOXIDE” value [1] was 37.33 mmol/L, the CHLORIDE [1] was 104.83 MEQ/L and the CHOLESTEROL [1] was 79.83 mg/dL. For the same compound, the “CREATINE PHOSPHOKINASE” value [1] was 392.83 u/L, the CREATININE [1] was 0.68 mg/dL and the GLUCOSE [1] was 153.33 mg/dL. The “LACTATE DEHYDROGENASE” value [1] was 426.17 u/L, the LIPASE [1] was 11.67 u/L and the PHOSPHORUS [1] was 11 mg/dL. The POTASSIUM [1] was 6.72 MEQ/L, the SODIUM [1] was 146.67 MEQ/L and the “TOTAL BILIRUBIN” value [1] was 0.55 mg/dL. For the same compound, the “TOTAL PROTEIN” value [1] was 6.32 G/DL, the “URIC ACID” value [1] was 0.0167 mg/dL and the “ERYTHROCYTE COUNT” value [2] was 6.93 x10E6/uL. The HEMATOCRIT [2] was 46.82%, the HEMOGLOBIN [2] was 14.23 G/DL and the “LEUKOCYTE COUNT” value [2] was 13.43 x10E3/uL. For the same compound, the “MEAN CORPUSCULAR HEMOGLOBIN” value [2] was 20.55 pg, the “MEAN CORPUSCULAR HEMOGLOBIN CONCENTRATION” value [2] was 30.38 G/DL and the “MEAN CORPUSCULAR VOLUME” value [2] was 67.62 fL. For the same compound, the “ALANINE AMINOTRANSFERASE” value [2] was 44.67 u/L, the ALBUMIN [2] was 3.8 G/DL and the “ALKALINE PHOSPHATASE” value [2] was 417.83 u/L. For the same compound, the “ASPARTATE AMINOTRANSFERASE” value [2] was 83 u/L, the “BLOOD UREA NITROGEN” value [2] was 15.33 mg/dL and the “CARBON DIOXIDE” value [2] was 38.83 mmol/L. For the same compound, the CHLORIDE [2] was 98.17 MEQ/L, the CHOLESTEROL [2] was 66.83 mg/dL and the “CREATINE PHOSPHOKINASE” value [2] was 383.17 u/L. For the same compound, the CREATININE [2] was 0.72 mg/dL, the GLUCOSE [2] was 156.5 mg/dL and the “LACTATE DEHYDROGENASE” value [2] was 519.67 u/L. The LIPASE [2] was 4.83 u/L, the PHOSPHORUS [2] was 11.07 mg/dL and the POTASSIUM [2] was 6.03 MEQ/L. For the same compound, the SODIUM [2] was 138 MEQ/L, the “TOTAL BILIRUBIN” value [2] was 0.55 mg/dL and the “TOTAL PROTEIN” value [2] was 6.3 G/DL. The “URIC ACID” value [2] was 0.0833 mg/dL, the “ERYTHROCYTE COUNT” value [3] was 6.43 x10E6/uL and the HEMATOCRIT [3] was 44.4%. The HEMOGLOBIN [3] was 13.2 G/DL, the “LEUKOCYTE COUNT” value [3] was 8.32 x10E3/uL and the “MEAN CORPUSCULAR HEMOGLOBIN” value [3] was 20.5 pg. For the same compound, the “MEAN CORPUSCULAR HEMOGLOBIN CONCENTRATION” value [3] was 29.63 G/DL, the “MEAN CORPUSCULAR VOLUME” value [3] was 69.13 fL and the “ALANINE AMINOTRANSFERASE” value [3] was 47 u/L. The ALBUMIN [3] was 3.87 G/DL, the “ALKALINE PHOSPHATASE” value [3] was 436.67 u/L and the “ASPARTATE AMINOTRANSFERASE” value [3] was 80.67 u/L. The “BLOOD UREA NITROGEN” value [3] was 15.33 mg/dL, the “CARBON DIOXIDE” value [3] was 37.33 mmol/L and the CHLORIDE [3] was 107.67 MEQ/L. The CHOLESTEROL [3] was 84.67 mg/dL, the “CREATINE PHOSPHOKINASE” value [3] was 198 u/L and the CREATININE [3] was 0.67 mg/dL. For the same compound, the GLUCOSE [3] was 163.33 mg/dL, the “LACTATE DEHYDROGENASE” value [3] was 277.33 u/L and the LIPASE [3] was 14.33 u/L. The PHOSPHORUS [3] was 9.63 mg/dL, the POTASSIUM [3] was 6.33 MEQ/L and the SODIUM [3] was 149.67 MEQ/L. The “TOTAL BILIRUBIN” value [3] was 0.47 mg/dL, the “TOTAL PROTEIN” value [3] was 6.2 G/DL and the “URIC ACID” value [3] was 0.0333 mg/dL. The “ERYTHROCYTE COUNT” value [4] was 6.62 x10E6/uL, the HEMATOCRIT [4] was 44.77% and the HEMOGLOBIN [4] was 13.67 G/DL. For the same compound, the “LEUKOCYTE COUNT” value [4] was 11.49 x10E3/uL, the “MEAN CORPUSCULAR HEMOGLOBIN” value [4] was 20.67 pg and the “MEAN CORPUSCULAR HEMOGLOBIN CONCENTRATION” value [4] was 30.6 G/DL. For the same compound, the “MEAN CORPUSCULAR VOLUME” value [4] was 67.7 fL, the “ALANINE AMINOTRANSFERASE” value [4] was 36.33 u/L and the ALBUMIN [4] was 3.8 G/DL. The “ALKALINE PHOSPHATASE” value [4] was 323.33 u/L, the “ASPARTATE AMINOTRANSFERASE” value [4] was 69 u/L and the “BLOOD UREA NITROGEN” value [4] was 14.67 mg/dL. The “CARBON DIOXIDE” value [4] was 34.67 mmol/L, the CHLORIDE [4] was 100.67 MEQ/L and the CHOLESTEROL [4] was 73 mg/dL. For the same compound, the “CREATINE PHOSPHOKINASE” value [4] was 199 u/L, the CREATININE [4] was 0.67 mg/dL and the GLUCOSE [4] was 164.33 mg/dL. The “LACTATE DEHYDROGENASE” value [4] was 327 u/L, the LIPASE [4] was 5.67 u/L and the PHOSPHORUS [4] was 11.33 mg/dL. The POTASSIUM [4] was 5.83 MEQ/L, the SODIUM [4] was 139.67 MEQ/L and the “TOTAL BILIRUBIN” value [4] was 0.43 mg/dL. The “TOTAL PROTEIN” value [4] was 6.17 G/DL and the “URIC ACID” value [4] was 0.27 mg/dL.
